{"source": "patent US20260232714A1", "about": "“COMPOSITION CONTAINING NICOTINAMIDE MONONUCLEOTIDE” (MEIJI HOLDINGS CO., LTD., priority 2023, published 2026)", "assay": "Test 1: blood NMN concentration after oral or sublingual administration of NMN (plasma, LC-MS/MS)", "assay_type": "in vivo, human", "experimental": "Tablets were used for oral administration. The content of NMN was 500 mg.\nPowder was used for sublingual administration. The content of NMN was 250 mg.\nOne adult with no abnormal health conditions participated in the test. The test was conducted over two separate days.\nThen, 250 mg of NMN (powder) was placed under the tongue, so that the powder was dissolved with saliva, and the test subject was maintained in that state. After 1 minute, the test subject spit out all NMN from the mouth, and blood was collected from the fingertip 5, 10, 15, and 30 minutes after the NMN was placed under the tongue.\nNMN concentration was determined by LC-MS/MS. Details of the measurements are described below.\n• Liquid A: 5 mM Ammonium formate aqueous solution • Liquid B: Acetonitrile", "key": {"[1]": {"conditions": "sublingual administration, in some test subjects"}}, "note": "“Also recorded” adds a separate entry of the source."}
{"smiles": "NC(=O)c1ccc[n+]([C@@H]2O[C@H](COP(=O)([O-])O)[C@@H](O)[C@H]2O)c1", "note": "[NMN, nicotinamide mononucleotide]", "values": [{"measurement": "blood NMN concentration compared with that observed before NMN ingestion (0 minute)", "setting": "oral administration, one tablet 500 mg NMN with water, one adult, 5-60 minutes, plasma", "result": "virtually unchanged; also recorded: does not increase; also recorded: almost unchanged"}, {"measurement": "maximum blood concentration", "setting": "[1]", "result": "≥ 5", "unit": "µg/mL"}, {"measurement": "time to reach the maximum blood concentration after administration", "setting": "[1]", "result": "about 5 minutes"}]}
